# Results as given in US20120156670A1, “IN VITRO […]-CULTURE MODELS” (ARIZONA STATE UNIVERSITY, priority 2010, published 2012).
# Tests used:
# [1] = tested on: dendritic cells in vaginal model co-culture; assay: MIMIC co-culture of primed vaginal epithelial microcarriers with PTE module: dendritic cell recovery; format: cell-based, human; details: FIG. 2
# From the text: (§1) Our experimental design of the MIMIC® co-culture of RWV bioreactor-grown epithelial tissue from selected female reproductive tract tested the efficacy of the differentiated epithelia to pick up and present antigen (FIG. 1). RWV-cultured female reproductive microcarriers of differentiated vaginal and endocervical mucosa were exposed to microbicide/spermicide and bacterial antigen and then introduced to the APC-containing PTE module to study the innate immune responses to Nonoxynol-9 and E. coli bioparticulate treatments.
# (§2) Approximately 3.5-week cultured vaginal tissue aggregates and endocervical tissue aggregates were used to mimic the local mucosal tissue of the female reproductive vaginal and endocervical regions. Cell-bearing microcarrier beads were prepared as follows. Collagen-coated Cytodex beads (Sigma) composed of dextran and having an average size of ˜60-87 microns were prepared for cell attachment by soaking in sterile PBS overnight and autoclaved. […]
# (§3) Specifically, for the differentiated reproductive epithelial microcarrier co-cultures used here, we generated PTE modules over a period of 2 weeks as follows (see FIG. 1). […] Cell layer integrity and viability were assessed by phase contrast microscopy and/or trypan blue exclusion staining. […]
# [2] = tested on: dendritic cells in endocervical model co-culture; assay: MIMIC co-culture of primed endocervical epithelial microcarriers with PTE module: dendritic cell recovery; format: cell-based, human; details: FIG. 2
# From the text: as §1, §2, §3
# [3] = tested on: PTE antigen-presenting cells; assay: Total immune cell recovery by trypan blue exclusion and flow cytometry (FIG. 2); format: cell-based, human; details: FIG. 2 legend; model not specified
# Description: FIG. 2. Total immune cell recovery calculated by trypan blue exclusion and total DCs per treatment were calculated by applying the percentage marker expression from flow cytometry data. […] CD86 and CCR7 expression in the vaginal model also confirm the antigen uptake/presentation responsiveness of the vaginal model.
# The quality of immune APCs was determined by quantifying dendritic cell marker expression (HLA-DR, CD14, CD86, CCR7) from the reverse-transmigrated cell fraction of the MIMIC® co-cultures.
# [4] = tested on: endocervical model co-culture; assay: Bioplex cytokine production in co-culture supernatants, endocervical model; format: cell-based, human; details: FIG. 4
# Description: Vaginal- and endocervix-cell bearing microcarriers were collected, washed, and re-suspended in 30 mL of KSFM complete medium (Invitrogen, with EGF and BPE), CaCl, and Primocin (InvivoGen). They were then placed on a shaker in polystyrene bottles with vented caps in an incubator (5% CO2, 37° C.) to mimic the circular agitation of the RWV bioreactor. The two types of cell-bearing microcarriers were primed using E. coli as the antigen to mimic an in vivo infection of the female reproductive mucosa through the following steps after a day of culture in the incubator. The E. coli was heat-inactivated and the resulting bioparticles were added at a concentration of 1×10^6/mL to the shaker bottles. E. coli bioparticles alone and no-treatment conditions served as positive and baseline controls, respectively.
# The effect of the microbicide nonoxynol-9 (N-9) on antigen priming was studied in experiments by mimicking in vivo microbicidal exposure through the use of Conceptrol®, leading to tissue damage, followed by bacterial infection. Over-the-counter, N-9-containing Conceptrol® was diluted to 20 μg/mL. The concentration of Conceptrol® was chosen to limit massive cell death due to presence of N-9 and reported findings of weakened membrane integrity in the presence of this surfactant microbicide (Dayal, 2003). […]
# vaginal epithelial cells = details: background statement; cited from earlier work
# [5] = N-9 and E. coli bioparticles delivered together
# [6] = single treatment, N-9 20 μg/mL, E. coli bioparticles 1×10^6/mL, overnight co-culture
substance,measurement,setting,value
nonoxynol-9 [N-9],live dendritic cell recovery,[1]; [5],overall reduction in live dendritic cell recovery
same,live dendritic cell recovery,[1]; [6],overall reduction in live dendritic cell recovery
same,live dendritic cell recovery,[2]; [5],overall reduction in live dendritic cell recovery
same,live dendritic cell recovery,[2]; [6],overall reduction in live dendritic cell recovery
same,total DC viability,[3],reduced
same,cytokine levels versus no treatment microcarrier plus PTE control,[4],above the no treatment microcarrier plus PTE control
same,effect on vaginal epithelial cells in vitro,vaginal epithelial cells,"increased inflammation, cell death, and damaged tissue mucosa"
